US11209437B2, “Fluorescent probe and preparation method and use thereof” (Fluorescence Diagnosis (shanghai) Biotech Company Ltd., priority 2016, dated 2021)

Tests used:
[1] = Viscosity responsiveness: fluorescence emission spectra of probes in glycerol and methanol; format: physicochemical
How it was run: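 Each probe, from a 1×10^−2 M DMSO stock, was diluted to a final 1×10^−5 M in glycerol and in methanol. Fluorescence emission spectra were then recorded under identical conditions at each probe's maximum excitation wavelength.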

[2] = Fluorescence of free probe prior to binding to a protein tag; format: physicochemical
[3] = biological target: T1, SNAP protein tags (Homo sapiens, UniProt P16455, A127T/A154D/C150Q/C62A/E30R/G131K/G132T/G153L/K125A/K32I/L33F/M134L/N157G/Q115S/Q116H/R128A/R135S/S151G/S152D/S159E); experiment: Fluorescence activation of probe after incubation with corresponding protein tag (SNAP); format: biochemical; conditions: probe 5 μM, protein tag 10 μM, 37° C., 1 hr
T1 sequence (P16455 1-182 E30R/K32I/L33F/C62A/Q115S/Q116H/K125A/A127T/R128A/G131K/G132T/M134L/R135S/C150Q/S151G/S152D/G153L/A154D/N157G/S159E): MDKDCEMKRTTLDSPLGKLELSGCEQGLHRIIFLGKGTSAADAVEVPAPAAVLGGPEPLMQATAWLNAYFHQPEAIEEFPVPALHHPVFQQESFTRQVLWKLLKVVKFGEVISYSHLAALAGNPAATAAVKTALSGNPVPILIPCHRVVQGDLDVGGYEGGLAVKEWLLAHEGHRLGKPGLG
How it was run: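 Probe (5 μM final) mixed with CLIP or SNAP protein tag (10 μM final) and incubated 1 hr at 37° C. Fluorescence intensity change measured by fluorescence spectrophotometer, with quantum yield of tag-bound probe determined.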

[4] = system: HeLa cells with stable expression of protein tags; experiment: Labeling of HeLa cells expressing protein tags vs HeLa-WT cells, confocal imaging; format: cell-based; conditions: probe 5 μM, 37° C., 2 hrs
Description: HeLa cells with stable expression of protein tags and HeLa-WT cells (HeLa primitive cells, with no protein tag expressed) were implanted in a 14 mm glass-bottom 96-well cell culture plate and stabilized for 10 hrs. Probes 1, 15, 21, 30, 56, 60, 63, 88 were added to the media, respectively and diluted to 5 μMs. The cells were incubated in a carbon dioxide incubator at 37° C. for 2 hrs, and then a Leica TPS-8 confocal microscopy was used to image the fluorescent changes of the labeled cells. […] However, for HeLa cells with protein tags expressed shown by group A in FIG. 12, strong fluorescent signals could be detected, which are nearly 300 times stronger.

[5] = system: HeLa cells; experiment: Labeling of organelle-localized protein tags in HeLa cells without washing; format: cell-based; conditions: 0.2 μM probe, 2 hrs, no washing
Description: To verify that probes 1, 21, 48, 60, 66 and 77 can be used to label target proteins located by different organelles, HeLa cells were taken as an example to detect the effect of probes on labeling different subcellular proteins. HeLa cells were implanted 5000 cells per well in a 96-well glass-bottom cell culture plate. 14 hrs later, the cells were transfected with the plasmids encoding different organelle localized protein tags using Lipo2000; the original medium was removed 24 hrs after transfection, washed with a phenol-free red DMEM medium twice, and incubated with a phenol-free red medium containing 0.2 μM probes for 2 hrs, and then the cell labeling effects were detected by imaging with a leica TCS-8 confocal microscopy.

[6] = system: SNAP-IAA17-H2B protein; experiment: Fluorescence change on AID-induced degradation of SNAP-IAA17-H2B in HeLa cells; format: cell-based; conditions: 1 μM probe; 120 min after indoleacetic acid
Description: To verify the correlation between the fluorescent activation of the probe of the present invention and the existence of proteins, SNAP protein in mammalian cells was taken as an example, and the fluorescence changes of SNAP protein binding probes after protein degradation were detected in HeLa cells by taking AID degradation system as an example. Firstly, HeLa cells were implanted 20,000/cm^2 in a 20 mm glass-bottom cell culture dish, and 14 hrs later, plasmids pcdna3.1-TIR1 and pcdna3.1-SNAP-IAA17-H2B were transfected by invitrogen's lipofectmain2000 transfection reagent. 24 hrs after the cell transfection, the original cell culture medium was replaced with a phenol-free red DMEM medium containing 1 μM of probe 21 to label the cells. The cell samples were incubated in a carbon dioxide incubator at 37° C. for 1 hour. After the labeling was completed, the fluorescence signal of labeled cells was detected by imaging with a Leica SP8 laser confocal microscopy, and indoleacetic acid (IAA) was added to induce SNAP-IAA17-H2B protein to degrade, and the cell fluorescence changes were detected during the protein degradation. […] When proteins exist, the fluorescence is activated, and when proteins are degraded, the fluorescence disappears, which can be used to track and monitor the degradation process of target proteins.

[7] = system: fusion protein CX43-SNAP; experiment: Tracing assembly of CX43-SNAP intercellular channels in HeLa cells; format: cell-based; conditions: probe 21 2 μM 1 hour first, then probe 1 1 μM
Description: To verify that the probe of the present invention can be used to monitor the assembly and degradation process of biological macromolecules in mammalian cells in real time, the process of tracing the assembly of intercellular protein CX43 to form intercellular channels in mammalian cells by the probe was detected by taking HeLa cells as an example. The C-terminal of CX43 gene was fused with SNAP gene, and HeLa cell line with stable expression of fusion protein CX43-SNAP was constructed and obtained by lentivirus infection technology. HeLa-CX43-SNAP cell lines were implanted in a 20 mm glass-bottom cell culture dish 10 hrs before the probe labeling. To conduct labeling, a phenol-free red DMEM medium was first used to dilute the probe 21 to 2 μM to replace the original cell culture medium. Cells were incubated in a carbon dioxide incubator at 37° C. for 1 hour. The cells were then washed twice using a fresh phenol-free red DMEM medium, with unbound probe 21 removed at 2-minute intervals. Then, DMEM phenol-free red culture medium containing 1 μM probe 1 was added to label cells. Leica SP8 confocal microscopy was used to monitor for a long time the fluorescence intensity and position changes of labeled cell samples at the corresponding fluorescence channels of probes 21 and 1, as shown in FIGS. 17A and 17B, respectively. […]

CN(CCOC(=O)NCc1ccc(COc2nc(N)nc3[nH]cnc23)cc1)c1cc2sc(/C=C(\C#N)C(=O)OC(C)(C)C)cc2s1 [probe 21]
Emission wavelength ([1]; excited at maximum excitation wavelength of each probe): 555 nm
Fluorescence ratio in glycerol to methanol ([1]; probe 1×10^−5 M): 1481
Quantum yield of free probe [2]: <0.001
Fluorescence activation multiple [3]: 560
Quantum yield of probe bound to protein tag [3]: 0.48
Fluorescence signal in HeLa-WT cells (no protein tag expressed) [4]: no corresponding fluorescence signal was detected
Fluorescent signal in HeLa cells with protein tags expressed, relative to HeLa-WT [4]: ~300 times
Labeling of subcellular organelle structures [5]: clearly display a variety of subcellular organelle structures without washing
Fluorescence signal after indoleacetic acid-induced protein degradation [6]: basically invisible
Fluorescence signal at intercellular channels [7]: long-columnar specific fluorescence signal between two cells
